Changes are numbered by the printed parent chain. Where “and” joins values, the source holds several entries; their conditions need not be identical. Equal values may be shown once.
What was measured:
murine PGP [1] = molecular target: T1, murine PGP (Mus musculus, UniProt Q8CHP8); assay: IC50 determination, murine PGP, 2-phospho-L-lactate (2PL) dephosphorylation; settings: for M.m PGP on 2- Phospho-L-lactate: activity, control = 100
T1 sequence (Q8CHP8 1-321): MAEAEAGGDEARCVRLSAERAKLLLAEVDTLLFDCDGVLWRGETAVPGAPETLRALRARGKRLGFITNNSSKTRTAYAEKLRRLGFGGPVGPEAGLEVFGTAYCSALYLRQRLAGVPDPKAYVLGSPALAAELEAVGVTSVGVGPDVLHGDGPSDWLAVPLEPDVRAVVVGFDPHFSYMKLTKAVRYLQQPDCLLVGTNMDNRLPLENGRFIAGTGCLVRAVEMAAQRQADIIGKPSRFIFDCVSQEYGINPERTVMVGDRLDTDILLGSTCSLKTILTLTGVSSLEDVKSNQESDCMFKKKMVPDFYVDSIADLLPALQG

PGP^P127E = molecular target: T2, PGP^P127E (Mus musculus, UniProt Q8CHP8, P127E); settings: read-out: enzyme activity in presence of CP1 relative to DMSO control (1), mPGP-P127E
T2 sequence (Q8CHP8 1-321 P127E): T1 sequence (Q8CHP8 1-321) with P127E

NT5C1A = molecular target: T3, NT5C1A (Homo sapiens, UniProt Q9BXI3); assay: In vitro phosphatase activity assay, NT5C1A (AMP); assay type: biochemical; settings: DMSO control = 100, read-out: NT5C1A activity on AMP in presence of CP relative to DMSO controls; for remaining activity at 50 µM: CP log[M] -4.30103; for remaining activity at 40 µM: CP log[M] -4.39794; for remaining activity at 30 µM: CP log[M] -4.52288; for remaining activity at 25 µM: CP log[M] -4.60206; for remaining activity at 20 µM: CP log[M] -4.69897; for remaining activity at 15 µM: CP log[M] -4.82391; for remaining activity at 10 µM: CP log[M] -5; for remaining activity at 5 µM: CP log[M] -5.30103; for remaining activity at […]: CP log[M] -5.60206
T3 construct: purchased Origene #TP324617
T3 sequence (Q9BXI3 1-368): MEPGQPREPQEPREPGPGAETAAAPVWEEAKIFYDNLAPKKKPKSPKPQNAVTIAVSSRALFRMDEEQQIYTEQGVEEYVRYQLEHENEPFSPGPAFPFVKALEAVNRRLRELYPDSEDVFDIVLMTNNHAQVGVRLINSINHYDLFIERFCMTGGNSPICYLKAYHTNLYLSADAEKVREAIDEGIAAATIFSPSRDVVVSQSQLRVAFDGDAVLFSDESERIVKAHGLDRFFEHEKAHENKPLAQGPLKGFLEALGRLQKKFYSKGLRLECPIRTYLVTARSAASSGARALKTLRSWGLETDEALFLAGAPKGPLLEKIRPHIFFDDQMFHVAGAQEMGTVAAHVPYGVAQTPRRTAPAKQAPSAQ
Experimental: Purified human NT5C1A (NM_032526, #TP324617) and purified human PHOSPHO1 (NM_178500, #TP314434) were from Origene. […] Data were analyzed with GraphPad Prism 7.04. […] Data are mean values ± S.E.M. of n=3 independent experiments.

murine PGP-P127E = molecular target: T4, murine PGP-P127E (Mus musculus, UniProt Q8CHP8, P127E); assay: Isothermal titration calorimetry, PGP-P127E; assay type: binding; settings: ITC
T4 construct: His6 (N, cleaved yes); made in house; host or cells: Escherichia coli BL21 (DE3), pETM-11
T4 sequence (Q8CHP8 1-321 P127E): T1 sequence (Q8CHP8 1-321) with P127E
Experimental: Purified murine PGP-WT or PGP-P127E was dialyzed overnight against ITC buffer (30 mM HEPES, 30 mM NaCl, 5 mM MgCl2, 1 mM tris(2-carboxyethyl)phosphine/TCEP; pH 7.5). All calorimetric measurements were performed at 25 °C on an ITC200 microcalorimeter (GE Healthcare). Experiments were conducted with a fixed concentration of 2% DMSO. […] To reduce the effects of ligand leakage from the syringe during baseline equilibration, the heat release of a single 1.2 μL injection was recorded prior to the actual titration experiment, and discarded during data analysis with Nitpic 2.0.7[45]. To determine background heats of dilution, control experiments of ligand into buffer, buffer into protein and buffer into buffer titrations were performed.

murine PGP [2] = molecular target: T1, murine PGP; assay: SAR: CP1, CP2 and analogs on PGP phosphatase activity (PG); assay type: biochemical; set-up: His6 (N, cleaved yes); made in house; host or cells: Escherichia coli BL21 (DE3), pETM11, co-expressed with groES-groEL-tig; settings: for inhibition of mPGP activity at 40 µM CP compared to DMSO control (%): single experiments Exp #1-3; for remaining activity at 2 µM: CP log[M] -5.69897; for remaining activity at 1 µM: CP log[M] -6; for remaining activity at 0.5 µM: CP log[M] -6.30103; for remaining activity at […]: CP log[M] -6.60206; for remaining activity at 0.125 µM: CP log[M] -6.90309; for remaining activity at 0.0625 µM: CP log[M] -7.20412
Experimental: However, the DMSO concentration was kept constant across each assay. For SAR experiments, all compound stocks were prepared at 10 mM in 100% DMSO. A constant final DMSO concentration of 0.4% was maintained under all conditions, and solvent control samples contained 0.4% DMSO without compounds.
PGP phosphatase activity were assessed using recombinant, purified murine PGP and PG as a

[3] = LC-MS quantification of intracellular CP1; assay type: in vitro ADME, human; settings: for Abs. CP1 / Abs. Peak Area, CP1 (neg.): PGP-WT, P5
Experimental: Cells (~1 million cells/dish) were rinsed in PBS (37 °C), trypsinized, sedimented at 300 × g, 4 °C for 4 min, washed once in PBS (4 °C), and sedimented again at 300 × g, 4 °C for 4 min. Cell pellets were snap-frozen in liquid nitrogen.
Water-soluble metabolites were extracted with 50 µl ice-cold MeOH/H2O (80/20, v/v) containing 0.01 μM lamivudine. After centrifugation of the resulting homogenates, supernatants were transferred to a RP18 SPE (50 mg/1 mL tubes; Phenomenex) that had been activated with 0.5 mL CH3CN and conditioned with 0.5 mL of MeOH/H2O (80/20, v/v). The eluate of the RP18 SPE-column was evaporated in a SpeedVac (Savant, Thermo Fisher Scientific). Dry sample extracts were redissolved in 75 μL 5 mM NH4OAc in CH3CN/H2O (50/50, v/v). Twenty µL of supernatant were transferred to LC-vials. Metabolites were analyzed by LC-MS using the following settings: 3 μL of each sample was applied to an XBridge Premier BEH Amide (2.5 μm particles, 100 × 2.1 mm) UPLC-column (Waters). Metabolites were separated with Solvent A, consisting of 5 mM NH4OAc in CH3CN/H2O (40/60, v/v) and solvent B consisting of 5 mM NH4OAc in CH3CN/H2O (95/5, v/v) at a flow rate of 200 µL/min at 45 °C by LC using a DIONEX Ultimate 3000 UHPLC system (Thermo Fisher Scientific). A linear gradient starting after 2 min with 100% solvent B decreasing to 10% solvent B within 23 min, followed by 16 min 10% solvent B and a linear increase to 100% solvent B in 2 min was applied. Recalibration of the column was achieved by a 7 min prerun with 100% solvent B before each injection. […] All MS-analyses were performed on a high-resolution Q Exactive mass spectrometer equipped with a HESI probe (Thermo Fisher Scientific) in alternating positive- and negative full MS mode with a scan range of 69.0–1000 m/z at 70 K resolution and the following ESI source parameters: Sheath gas: 30, auxiliary gas: 1, sweep gas: 0, aux gas heater temperature: 120 °C, spray voltage: 3 kV, capillary temperature: 320 °C, S-lens RF level: 50. XIC generation and signal quantitation was performed using TraceFinder v3.3 (Thermo Fisher Scientific) integrating peaks which corresponded to the calculated monoisotopic metabolite masses (MIM + /− H + ± 3 mMU). Analyses of PGP-WT and PGP-KO cells were performed in n = 5 biologically independent experiments.

[4] = read-out: mPGP activity in presence of CP relative to DMSO controls, mPGP on PG (norm.)

In the case of `O=C(Nc1ccccc1C(=O)O)c1ccc(Oc2ccc(C(=O)Nc3ccccc3C(=O)O)cc2)cc1` [CP1], the IC50 (murine PGP [1]) is reported as 0.31 ± 0.03 µM, the “M.m PGP on 2- Phospho-L-lactate” value (murine PGP [1]; CP1 log[M] -5.04576) is reported as 4.1667 and 4.9853 and 5.6548 and the “M.m PGP on 2- Phospho-L-lactate” value (murine PGP [1]; CP1 log[M] -5.52288) is reported as 7.7778 and 8.7977 and 9.2262. The “M.m PGP on 2- Phospho-L-lactate” value (murine PGP [1]; CP1 log[M] -6) was 23.0556 and 24.9267 and 23.8095, the “M.m PGP on 2- Phospho-L-lactate” value (murine PGP [1]; CP1 log[M] -6.47712) was 45.5556 and 51.3196 and 45.8333 and the “M.m PGP on 2- Phospho-L-lactate” value (murine PGP [1]; CP1 log[M] -6.95424) was 73.3333 and 81.2317 and 78.869. The “M.m PGP on 2- Phospho-L-lactate” value (murine PGP [1]; CP1 log[M] -7.43136) was 88.6111 and 95.3079 and 85.7143, the “M.m PGP on 2- Phospho-L-lactate” value (murine PGP [1]; CP1 log[M] -7.90849) was 96.3889 and 100.293 and 92.8571 and the remaining activity at 32.36 µM (PGP^P127E; CP1 log[M] -4.49, Exp #1-#3) was 15%. The remaining activity at 15.85 µM (PGP^P127E; CP1 log[M] -4.80, Exp #1-#3) was 27%, the remaining activity at 7.943 µM (PGP^P127E; CP1 log[M] -5.10, Exp #1-#3) was 45% and the remaining activity at 3.981 µM (PGP^P127E; CP1 log[M] -5.40, Exp #1-#3) was 64%. It also gave a remaining activity at 1.995 µM (PGP^P127E; CP1 log[M] -5.70, Exp #1-#3) of 80%, a remaining activity at 1 µM (PGP^P127E; CP1 log[M] -6.00, Exp #2-#3) of 85% and a remaining activity at 0.5012 µM (PGP^P127E; CP1 log[M] -6.30, Exp #1-#3) of 81%. The remaining activity at 0.2512 µM (PGP^P127E; CP1 log[M] -6.60, Exp #1-#3) was 94%, the remaining activity at 0.1259 µM (PGP^P127E; CP1 log[M] -6.90, Exp #1-#3) was 92% and the remaining activity at 80 µM (NT5C1A; CP log[M] -4.09691) was 12.2%. The remaining activity at 60 µM (NT5C1A; CP log[M] -4.22185) was 13.1%, the remaining activity at 50 µM (NT5C1A) was 13.1% and the remaining activity at 40 µM (NT5C1A) was 16.3%. It also gave a remaining activity at 30 µM (NT5C1A) of 38.9%, a remaining activity at 25 µM (NT5C1A) of 50.7% and a remaining activity at 20 µM (NT5C1A) of 57%. For the same molecule, the remaining activity at 15 µM (NT5C1A) was 83.3%, the remaining activity at 10 µM (NT5C1A) was 90.5% and the remaining activity at 5 µM (NT5C1A) was 104%. The remaining activity at […] (NT5C1A) was 86.9%, the “n, stoichiometry” value (murine PGP-P127E) was 1.15 ± 0.04 and the Kd (murine PGP-P127E; […]) was 11.9 ± 0.41 µM. For the same molecule, the “inhibition of mPGP activity at 40 µM CP compared to DMSO control (%)” value (murine PGP [2]) was 92.9348% and 99.7175% and 99.6139%, the remaining activity at 8 µM (murine PGP [2]; CP log[M] -5.09691, read-out: mPGP activity in presence of CP relative to DMSO controls, mPGP on PG (norm.)) was 1.61% and the remaining activity at 2 µM (murine PGP [2]; [4]) was 11.3%. It also gave a remaining activity at 1 µM (murine PGP [2]; [4]) of 24.7%, a remaining activity at 0.5 µM (murine PGP [2]; [4]) of 35.5% and a remaining activity at […] (murine PGP [2]; [4]) of 66.1%. For the same molecule, the remaining activity at 0.125 µM (murine PGP [2]; [4]) was 76.3%, the remaining activity at 0.0625 µM (murine PGP [2]; [4]) was 88.7% and the remaining activity at 0.03125 µM (murine PGP [2]; CP log[M] -7.50515, read-out: mPGP activity in presence of CP relative to DMSO controls, mPGP on PG (norm.)) was 93%. The remaining activity at 0.0078125 µM (murine PGP [2]; CP log[M] -8.10721, read-out: mPGP activity in presence of CP relative to DMSO controls, mPGP on PG (norm.)) was 101%, the “less CP1 detected than expected” value ([3]; 100 µM CP1) was 39% and the “Abs. CP1” value ([3]; 3h 33 uM CP1) was 0.136 pmol and 0.115 pmol and 0.127 pmol. For the same molecule, the “Abs. Peak Area, CP1 (neg.)” value ([3]; 3h 33 uM CP1) was 1166078 and 1127449 and 1204353, the “Abs. CP1” value ([3]; 7h 100 uM CP1) was 0.229 pmol and 0.231 pmol and 0.241 pmol and the “Abs. Peak Area, CP1 (neg.)” value ([3]; 7h 100 uM CP1) was 2322474 and 2574644 and 2821728.
`COc1ccc(C(=O)Nc2ccc(Cc3ccc(NC(=O)c4ccc(OC)c(OC)c4)c(C(=O)O)c3)cc2C(=O)O)cc1OC` [CP2] gave a remaining activity at 50 µM (NT5C1A) of 11.9%, a remaining activity at 40 µM (NT5C1A) of 20.5% and a remaining activity at 30 µM (NT5C1A) of 33.1%. The remaining activity at 25 µM (NT5C1A) was 45.1%, the remaining activity at 20 µM (NT5C1A) was 62.1% and the remaining activity at 15 µM (NT5C1A) was 69%. For the same molecule, the remaining activity at 10 µM (NT5C1A) was 74.2%, the remaining activity at 5 µM (NT5C1A) was 83.9% and the remaining activity at […] (NT5C1A) was 91.1%. The “inhibition of mPGP activity at 40 µM CP compared to DMSO control (%)” value (murine PGP [2]) was 91.3408% and 89.3401% and 90.1099%, the remaining activity at 16 µM (murine PGP [2]; CP log[M] -4.79588, read-out: mPGP activity in presence of CP relative to DMSO controls, mPGP on PG (norm.)) was 20.6% and the remaining activity at 4 µM (murine PGP [2]; CP log[M] -5.39794, read-out: mPGP activity in presence of CP relative to DMSO controls, mPGP on PG (norm.)) was 34.3%. It also gave a remaining activity at 2 µM (murine PGP [2]; [4]) of 51.6%, a remaining activity at 1 µM (murine PGP [2]; [4]) of 67.7% and a remaining activity at 0.5 µM (murine PGP [2]; [4]) of 69%. For the same molecule, the remaining activity at […] (murine PGP [2]; [4]) was 72.6%, the remaining activity at 0.125 µM (murine PGP [2]; [4]) was 81.8% and the remaining activity at 0.0625 µM (murine PGP [2]; [4]) was 84.3%. It also gave a remaining activity at 0.015625 µM (murine PGP [2]; CP log[M] -7.80618, read-out: mPGP activity in presence of CP relative to DMSO controls, mPGP on PG (norm.)) of 96%.

— PMC9652372, “Glycolytic flux control by drugging phosphoglycolate phosphatase” (Nature Communications, 2022)
